From patent US5876715A, “Antibodies that bind novel carbohydrate ligands (myelorollins) that cause E-selectin dependent cell rolling, and uses thereof” (The Biomembrane Institute, priority 1996, dated 1999)
Entries after “also recorded” stand apart in the source; their conditions may differ.

Key:
[1] = target: T1, E-selectin-Ig fusion protein (Homo sapiens, UniProt P16581); assay: Direct binding of ganglioside-coated latex beads to E-selectin-Ig coated fluorescent beads by flow cytometry; details: ganglioside-coated latex beads mixed with E-selectin-Ig fluorescent beads
T1 construct: Fc is only a tag
T1 sequence (P16581 22-610): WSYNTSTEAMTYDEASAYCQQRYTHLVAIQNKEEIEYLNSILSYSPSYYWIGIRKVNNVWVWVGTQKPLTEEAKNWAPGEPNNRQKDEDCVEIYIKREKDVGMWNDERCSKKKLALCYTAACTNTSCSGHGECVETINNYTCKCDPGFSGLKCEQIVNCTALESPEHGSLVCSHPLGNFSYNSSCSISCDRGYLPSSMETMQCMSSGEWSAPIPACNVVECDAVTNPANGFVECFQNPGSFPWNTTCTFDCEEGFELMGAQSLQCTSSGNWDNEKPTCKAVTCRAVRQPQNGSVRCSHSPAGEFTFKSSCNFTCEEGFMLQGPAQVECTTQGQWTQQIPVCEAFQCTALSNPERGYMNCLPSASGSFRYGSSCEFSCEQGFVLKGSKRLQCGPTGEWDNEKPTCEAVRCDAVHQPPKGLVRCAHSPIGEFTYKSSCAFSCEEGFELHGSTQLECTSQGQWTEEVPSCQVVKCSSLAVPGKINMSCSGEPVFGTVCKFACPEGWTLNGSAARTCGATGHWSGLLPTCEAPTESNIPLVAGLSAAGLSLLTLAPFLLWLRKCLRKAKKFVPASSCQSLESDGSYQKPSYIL
Method: 5×10^6 polystyrene latex beads (diameter […]) (IDC Spheres™; IDC, Portland, Oreg.) were washed with ethanol by centrifugation. 1 μg of GSL in 50 μL of ethanol was added to the washed beads and the mixture was evaporated under nitrogen stream. The beads were resuspended in 1% BSA in PBS(+) and washed twice by centrifugation. Washed beads were blocked with 3% BSA in PBS(+) at room temperature for 2 hr. After centrifugation, beads were resuspended in 1% BSA in PBS(+) with 0.1% azide and stored at 4° C. Yellow-green fluorescent sulfated latex beads (diameter 1 μm) (Molecular Probes, Inc., Portland, Oreg.) were coated with goat anti-human IgG (Fc-fragment specific) antibody (Jackson Immunoresearch Lab, West Grove, Pa.) according to manufacturer's protocol. After washing 3× with PBS, beads were blocked with 3% BSA in PBS at 4° C. for 2 hr. Blocked beads (about 5×10^8) were mixed with 1.5 mL of E- or P-selectin-Ig fusion protein containing culture supernatant (about 1 μg/mL fusion protein) from CHO transfectants (Handa et al., 1995 Int. J. Oncol. 6:773-781) with a blood mixer at 4° C. for 6-18 hr. This mixing procedure was repeated 3 times more using new culture supernatant containing the fusion protein. After washing with PBS, beads were incubated in 1 mL PBS containing 50 μg human IgG (Jackson Immunoresearch). For preparation of control beads, human IgG was used at 1 μg/mL, instead of fusion protein. The ganglioside-coated beads were mixed with the fluorescent beads at room temperature for various durations. The resulting suspension was subjected to flow cytometric analysis. Conditions of each assay are detailed below.
Adhesion under conditions of E- or P-selectin-binding to various gangliosides was assessed by a novel, sensitive method using E- or P-selectin-coated fluorescent beads (FIGS. 2 and 3). Adhesion was determined by aggregation of polystyrene beads coated with myelorollin, and selectin-coated fluorescent beads. Gangliosides were coated on non-fluorescent polystyrene beads and mixed with fluorescent beads coated with E- or P-selectin in the presence or absence of EDTA. Since aggregation occurs under brief, strong agitation, the process is neither "static" nor "dynamic" adhesion, in which myelorollin is presented as immovable solid phase. In this system, solid phases containing both myelorollin and selectin are in dynamic condition. Binding was determined by cytofluorometry. Ganglioside fractions used in this experiment were the same as described in Table 1. In addition: Sdiy^2, sialosyl Le^x -Le^x (VI^3 NeuAcV^3 FucIII^3 FucnLc6 Cer); SLe^x (IV^3 NeuAcIII^3 FucnLc4 Cer). These designated structures are based on ^1 H NMR, mass spectrometry. Binding index was defined as mean fluorescence intensity (MFI) of ganglioside fraction divided by MFI of sialylparagloboside (IV^3 NeuAcnLc4 Cer).
Referring to FIG. 2: open columns, E-selectin-IgG beads. Lighter shaded columns, E-selectin-IgG beads in the presence of 5 mM EDTA. Darker shaded columns, P-selectin-IgG beads. Solid columns, human IgG control beads. The binding of myelorollin to E-selectin beads was completely abolished in the presence of EDTA; myelorollin was unable to bind to P-selectin.
Binding index was defined as MFI of sample divided by MFI of sialylparagloboside as in FIG. 2. Open columns, E-selectin-IgG beads preincubated with control mouse IgG. Solid columns, E-selectin-IgG beads preincubated with mAb E1C. […]

[2] = tested on: CHO cells permanently expressing E-selectin; details: TLC overlay, Stroud et al. 1995, 1996; cited from earlier work

Row | binding to E-selectin beads (binding index, MFI relative to sialylparagloboside) [1] | binding to E-selectin beads (binding index, MFI relative to sialylparagloboside) ([1]; listed as Str. 1) | Substance | binding to E-selectin beads (binding index, MFI relative to sialylparagloboside) ([1]; listed as Str. 3) | E-selectin binding/adhesion under static conditions in previous studies [2]
1 | no binding to E-selectin | no binding whatsoever | VI^3 NeuAcnLc6 Cer [Fr. 7] | – | –
2 | – | – | VI^3 NeuAcV^3 FucIII^3 FucnLc6 Cer [SLe^x -Le^x, reference compound] | did show binding; also recorded: bound to E-selectin | –
3 | weak adhesion | – | X^3 NeuAcVII^3 FucnLc10 Cer [Fr. 12-2] | – | –

Row | Substance | binding to E-selectin beads (binding index, MFI relative to sialylparagloboside) [1] | binding to E-selectin beads (binding index, MFI relative to sialylparagloboside) ([1]; listed as Str. 1) | binding to E-selectin beads (binding index, MFI relative to sialylparagloboside) ([1]; listed as Str. 3) | E-selectin binding/adhesion under static conditions in previous studies [2]
4 | X^3 NeuAcVII^3 FucV^3 FucnLc10 Cer [Fr. 13-1] | clear binding; also recorded: bind strongly to E-selectin | – | – | capable of binding E-selectin under static conditions
